In paper PMC8965496, “Combating multidrug resistance and metastasis of breast cancer by endoplasmic reticulum stress and cell-nucleus penetration enhanced immunochemotherapy” (Theranostics, 2022):

Tested on: MCF-7/ADR drug resistant cell line
Assay: IC50 of DOX against drug-resistant cell line
Format: cell-based
Settings: ratio MCF-7/ADR to MCF-7

COc1cccc2c1C(=O)c1c(O)c3c(c(O)c1C2=O)C[C@@](O)(C(=O)CO)C[C@@H]3O[C@H]1C[C@H](N)[C@H](O)[C@H](C)O1 [DOX, doxorubicin]
IC50 in MCF-7/ADR cells relative to MCF-7 cells: 108.07 fold
